Source: patent publication US20250332167A1, “PHARMACEUTICAL USE OF CDK 4/6 INHIBITOR” (priority 2021, published 2025)
“And” between values parts separate entries of the source, which are not always exact repeats. Equal values may be shown once.

Assays:
[1] = system: Human glioblastoma model (BN2289); assay: Human glioblastoma xenograft mouse model (BN2289); type: in vivo, BALB/C nude mice; conditions: for Day 21 Tumor Volume / Relative Average Tumor Volume / T/C (relative tumor growth rate) / TGI (relative tumor inhibition rate): day 21
Source text: Human glioblastoma model (BN2289, Crown Bioscience Co., Ltd.) tumor fragments were cut into small pieces with a diameter of 2-3 mm and subcutaneously inoculated into the right side of BALB/C nude mice. Tumor growth was monitored regularly, and when the tumors grew to an average volume of approximately 100-200 mm^3, mice were randomly divided into groups based on the tumor size.
Each group consisted of 8 mice and received oral gavage administration once daily for a total of 28 days. Regular observations were made on tumor volume and changes in body weight. Efficacy evaluation was conducted based on the relative tumor growth rate (T/C) and the relative tumor inhibition rate (TGI).
(§1) The formula for calculating tumor volume was: Tumor Volume (mm^3)=½×(a×b^2) (where “a” represents the long diameter and “b” represents the short diameter).
(§2) The relative tumor growth rate (T/C) is the percentage value of the relative tumor volume or weight between the treatment group and the control group at a certain time point. The calculation formula is as follows: • T/C(%)=TRTV/CRTV×100% (TRTV: Average RTV of the treatment group; CRTV: Average RTV of the Vehicle group; RTV=Vt/V0, where V0 is the tumor volume of the animal at the time of grouping and Vt is the tumor volume of the animal after treatment).
(§3) (T and C are the relative tumor volume (RTV) or weight (TW) of the treatment group and control group at a specific time point, respectively).

U118MG cells = assay: Proliferation inhibition of human glioblastoma cells U118MG (DAPI cell count, 72 h); type: cell-based; conditions: U-118-MG, 72 h treatment
Method: Human glioblastoma cell U118MG was purchased from NANJING COBIOER BIOSCIENCES CO., LTD. […] The cell detection equipment used was the In Cell Analyzer 2200 (GE Healthcare).
With 60 μM as the initial concentration, ten points were obtained by serial five-fold dilution.
Medium for U118 MG is the MEM (low glucose) medium supplemented with 10% FBS, 1% penicillin/streptomycin, 1% sodium pyruvate, and 1% MEM NEAA. U118 MG cells were seeded at a density of 4000 cells/100 μL/well in a 96-well black clear-bottom plate and incubated at 37° C. overnight. The plate was then taken, and 20 μL of the prepared diluted samples was added to the wells. The cells were treated at 37° C. for 72 hours. After 72 hours, the plate was taken, and a neutral formaldehyde fixation solution (formaldehyde:PBS=1:9) was added at 50 μL/well. The cells were fixed at room temperature for 10-30 minutes. The wells were washed twice with 1× PBS (100 μL/well), and then permeabilized with 0.2% Triton™-X100 for 5-10 minutes (100 μL/well). […] The plate was scanned by using an In Cell Analyzer, and the number of cells in each well was analyzed. The inhibition rate of each compound at various concentration points was calculated by using the formula provided. The IC50 values were determined by curve fitting using GraphPad Prism 6.0 software.

NCI-H1975 xenograft = assay: Human non-small cell lung cancer NCI-H1975 xenograft mouse model; type: in vivo, Balb/c nude mice; conditions: for T/C / TGI / Tumor relative volume (x ± S) / Tumor volume (x ± S): 16 days after administration; for Body weight change: Day 20 of treatment
Source text: as §1, §2, §3
NCI-H1975 cells were cultured in RPMI1640 medium containing 10% fetal bovine serum. Log-phase NCI-H1975 cells were collected, suspended in PBS to an appropriate concentration, and used for subcutaneous tumor implantation in Balb/c nude mice. Each female mouse was implanted with 0.1 ml of NCI-H1975 cells subcutaneously. When the average tumor volume reached 171 mm^3, the mice were randomly divided into groups based on tumor size.
The positive control drugs were Palbociclib and Abemaciclib.
Each group consisted of 8 mice, and oral gavage administration was performed once daily for a total of 21 days. Tumor volume and body weight changes were observed regularly, and efficacy evaluation was conducted based on relative tumor proliferation rate (T/C) and relative tumor growth inhibition rate (TGI). The calculation methods for tumor volume, T/C, and TGI are described in Example 3.

[2] = 10 mg/kg oral gavage once daily
[3] = 25 mg/kg oral gavage once daily
[4] = 50 mg/kg oral gavage once daily

For CC1=Nc2c(F)cc(-c3nc(Nc4ccc(C5CCN(C)CC5)cn4)ncc3F)cc2C12CCCC2.O=C(O)/C=C/C(=O)O [Compound A, Fumarate salt of 5-fluoro-4-(7′-fluoro-2′-methylspiro[cyclopentane-1,3′-indol]-5′-yl)-N-(5-(1-methylpiperidin-4-yl)pyridin-2-yl)pyrimidine-2-amine], the “Day 21 Tumor Volume” value ([1]; 5 mg/kg oral gavage once daily) was 2038.41 ± 177.46 mm^3, the “Relative Average Tumor Volume” value ([1]; 5 mg/kg oral gavage once daily) was 13.80 and the “T/C (relative tumor growth rate)” value ([1]; 5 mg/kg oral gavage once daily) was 95.08%. For the same compound, the “TGI (relative tumor inhibition rate)” value ([1]; 5 mg/kg oral gavage once daily) was 4.92%, the “Day 21 Tumor Volume” value [1, 2] was 1900.70 ± 134.20 mm^3 and the “Relative Average Tumor Volume” value [1, 2] was 12.81. For the same compound, the “T/C (relative tumor growth rate)” value [1, 2] was 88.24%, the “TGI (relative tumor inhibition rate)” value [1, 2] was 11.76% and the “Day 21 Tumor Volume” value [1, 3] was 1302.81 ± 119.99 mm^3. For the same compound, the “Relative Average Tumor Volume” value [1, 3] was 8.80, the “T/C (relative tumor growth rate)” value [1, 3] was 60.61% and the “TGI (relative tumor inhibition rate)” value [1, 3] was 39.39%. The “Day 21 Tumor Volume” value [1, 4] was 938.13 ± 52.26 mm^3, the “Relative Average Tumor Volume” value [1, 4] was 6.32 and the “T/C (relative tumor growth rate)” value [1, 4] was 43.56%. For the same compound, the “TGI (relative tumor inhibition rate)” value [1, 4] was 56.44%, the “Drug toxicity / tolerance (body weight)” value ([1]; 5-50 mg/kg oral gavage once daily, 28 days) was “no significant toxic side effects” and the IC50 (U118MG cells) was 23.2 ± 5.2 nM. The T/C (NCI-H1975 xenograft; 5 mg/kg oral gavage once daily) was 85%, the TGI (NCI-H1975 xenograft; 5 mg/kg oral gavage once daily) was 15% and the “Tumor relative volume (x ± S)” value (NCI-H1975 xenograft; 5 mg/kg oral gavage once daily) was 9.8 ± 0.6. The “Tumor volume (x ± S)” value (NCI-H1975 xenograft; 5 mg/kg oral gavage once daily) was 1889 mm^3 and 1889 ± 60 mm^3, the T/C (NCI-H1975 xenograft; [2]) was 72% and the TGI (NCI-H1975 xenograft; [2]) was 28%. The “Tumor relative volume (x ± S)” value (NCI-H1975 xenograft; [2]) was 8.4 ± 1.0, the “Tumor volume (x ± S)” value (NCI-H1975 xenograft; [2]) was 1647 mm^3 and 1647 ± 243 mm^3 and the T/C (NCI-H1975 xenograft; [3]) was 50%. For the same compound, the TGI (NCI-H1975 xenograft; [3]) was 50%, the “Tumor relative volume (x ± S)” value (NCI-H1975 xenograft; [3]) was 5.8 ± 0.3 and the “Tumor volume (x ± S)” value (NCI-H1975 xenograft; [3]) was 1141 mm^3 and 1141 ± 112 mm^3. For the same compound, the Body weight change (NCI-H1975 xenograft; [3]) was “slight decrease in body weight”, the T/C (NCI-H1975 xenograft; [4]) was 31% and the TGI (NCI-H1975 xenograft; [4]) was 69%. For the same compound, the “Tumor relative volume (x ± S)” value (NCI-H1975 xenograft; [4]) was 3.6 ± 0.2, the “Tumor volume (x ± S)” value (NCI-H1975 xenograft; [4]) was 709 mm^3 and 709 ± 47 mm^3 and the Body weight change (NCI-H1975 xenograft; [4]) was “slight decrease in body weight”.
